Laboratory results: patent US12116368B2, “Pyrrolo[2,3-d]pyrimidine tosylate salt, crystalline form thereof and manufacturing process and intermediates thereto” (Pfizer Inc., priority 2018, dated 2024)
Several values for one entry are separate records, joined by “and”; a condition that tells them apart may be missing. Equal entries are not always repeated.

Assay: Solid state stability under accelerated stability conditions (70° C./75% RH, one week), monitoring purity
Type: physicochemical
Conditions: for Initial Purity: API purity before the accelerated stability stress test; for Final Purity (post stress test): after one week at 70° C./75% RH, solid state; for Recommended storage condition for use as an API: assigned from the accelerated stability result; for Solid state stability compared with amorphous free base and malonate salt: accelerated stability conditions 70° C./75% RH, one week
Protocol: The solid state stability is monitored using accelerated stability conditions (70° C./75% RH) for one week and then monitoring appearance, purity and form change. These accelerated conditions are used to assign an initial use period for the API.

SMILES	Initial Purity	Final Purity (post stress test)	Initial Purity (listed as malonate salt) [%]	Final Purity (post stress test) (listed as malonate salt) [%]	Recommended storage condition for use as an API	Solid state stability compared with amorphous free base and malonate salt
C=CC(=O)N1C[C@H](Nc2ncnc3[nH]ccc23)CC[C@@H]1C [Amorphous Free base, 1-((2S,5R)-5-((7H-Pyrrolo[2,3-d]pyrimidin-4-yl)amino)-2-methylpiperidin-1-yl)prop-2-en-1-one]	99.3%	41.3& %				
C=CC(=O)N1C[C@H](Nc2ncnc3[nH]ccc23)CC[C@@H]1C.O=C(O)CC(=O)O [Malonate salt, 1-((2S,5R)-5-((7H-Pyrrolo[2,3-d]pyrimidin-4-yl)amino)-2-methyl-piperidin-1-yl)prop-2-en-1-one Malonic Acid Salt (Form 1)]	99.5%	81.6%	99.5	81.6	would require refrigeration	
C=CC(=O)N1C[C@H](Nc2ncnc3[nH]ccc23)CC[C@@H]1C.O=P(O)(O)O [Phosphate salt, 1-((2S,5R)-5-((7H-Pyrrolo[2,3-d]pyrimidin-4-yl)amino)-2-meth-ylpiperidin-1-yl)prop-2-en-1-one Phosphoric Acid Salt (Form A)]	99.6%	99.5%				significantly improved
C=CC(=O)N1C[C@H](Nc2ncnc3[nH]ccc23)CC[C@@H]1C.Cc1ccc(S(=O)(=O)O)cc1 [Tosylate salt, 1-((2S,5R)-5-((7H-Pyrrolo[2,3-d]pyrimidin-4-yl)amino)-2-meth-ylpiperidin-1-yl)prop-2-en-1-one p-Toluenesulfonic Acid Salt (Form 1)]	99.1% and 99.6%	97.7% and 99.6%			would not require refrigerated storage conditions	significantly improved
